Test results reported in patent publication US20130231393A1, “USE OF SQUARAMIDE IN THE PREVENTION AND/OR TREATMENT OF ROSACEA” (GALDERMA RESEARCH & DEVELOPMENT, priority 2010, published 2013).

Assays:
CXCR2 = biological target: T1, CXCR2 (Homo sapiens, UniProt P25025); assay: β-arrestin2 recruitment assay, antagonism of CXCL8 stimulation (PathHunter HEK293 hCXCR2 b-arrestin); type: cell-based; details: PathHunter HEK293 hCXCR2 b-arrestin cells, CXCL8-stimulated
T1 sequence (P25025 1-360): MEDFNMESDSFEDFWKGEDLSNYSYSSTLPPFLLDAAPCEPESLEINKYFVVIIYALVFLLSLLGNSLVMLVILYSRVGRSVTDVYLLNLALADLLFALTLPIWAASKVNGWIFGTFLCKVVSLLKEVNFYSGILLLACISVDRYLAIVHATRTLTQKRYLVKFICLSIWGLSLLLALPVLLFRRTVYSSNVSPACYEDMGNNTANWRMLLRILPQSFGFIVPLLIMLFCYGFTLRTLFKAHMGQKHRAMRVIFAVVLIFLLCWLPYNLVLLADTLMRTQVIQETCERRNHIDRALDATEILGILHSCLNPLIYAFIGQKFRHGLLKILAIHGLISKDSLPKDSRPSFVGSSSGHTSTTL
Description: (§1) Antagonism of CXCL8-Stimulated β-Arrestin2 Recruitment. […] To monitor direct interaction of CXCR2 or CXCR1 with β-arrestin2, we used a β-arrestin2 recruitment assay for CXCR2 or CXCR1 based on enzyme complementation of β-galactosidase (Olson and Eglen, 2007), as established by DiscoveRx Corporation. […] All CXCR2-antagonists are tested in dose-depedant manner (firsty dose 10 μM).
(§2) PathHunter HEK293-hCXCR2 b-arrestin cells or U2OS hCXCR1 b-arrestin cells (both from DiscoveRx Corporation) were plated out overnight at 10,000 cells/well (384-well format) in 50 μl of Opti MEM I+1% bovine serum albumin. Cells were treated with CXR2 antogonist or vehicule (Opti MEM I) and CXCL-8 at the same time for 90 min.; thereafter, 25 μl of PathHunter Detection Reagents (DiscoveRx Corporation) was added. After an incubation of 60 min at room temperature, β-galactosidase-induced luminescence upon β-arrestin-CXCR1/2 interaction was measured in an TopCount Reader (Perkin Elmer). Functional data were evaluated by a nonlinear curve fitting procedure using XLFit4 (IDBS).

CXCR1 = biological target: T2, CXCR1 (Homo sapiens, UniProt P25024); assay: β-arrestin2 recruitment assay, antagonism of CXCL8 stimulation (U2OS hCXCR1 b-arrestin); type: cell-based; details: U2OS hCXCR1 b-arrestin cells, CXCL8-stimulated
T2 construct: β-galactosidase enzyme-complementation fragment (PathHunter system); host or cells: U2OS (U2OS hCXCR1 b-arrestin)
T2 sequence (P25024 1-350): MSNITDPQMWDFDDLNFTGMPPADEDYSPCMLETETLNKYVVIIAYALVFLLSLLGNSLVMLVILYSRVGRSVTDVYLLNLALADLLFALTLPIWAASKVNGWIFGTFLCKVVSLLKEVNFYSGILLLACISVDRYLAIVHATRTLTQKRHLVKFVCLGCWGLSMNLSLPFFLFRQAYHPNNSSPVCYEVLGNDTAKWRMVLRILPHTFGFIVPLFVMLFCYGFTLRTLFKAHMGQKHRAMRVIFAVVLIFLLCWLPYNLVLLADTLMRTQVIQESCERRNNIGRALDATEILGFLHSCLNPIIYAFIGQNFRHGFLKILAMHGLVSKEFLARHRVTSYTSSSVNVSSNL
Description: as §1, §2

hairless SKH1 mice = assay: RTX-induced vasodilation in a neurogenic skin inflammation model (laser Doppler perfusion imaging); type: in vivo; details: capsazepine at 5%, topical; RTX 0.03% on the back of SKH1 mice
Description: The animal model of neurogenic skin inflammation was induced by a unique topical application of resiniferatoxin (RTX), 0.03% on the back of hairless SKH1 mice. RTX is an ultrapotent capsaicin analog and RTX exposure evokes neuropeptides release. Most of these neuropeptides have vasodilatory properties and one component of RTX-induced neurogenic inflammation is the dermal vasodilation. In the present RTX-model, the objective assessment of the skin vasodilation was evaluated by laser Doppler perfusion imaging.
Material and Method: • Measurement of RTX-Induced Vasodilation
Adult female hairless SKH1 mice aged 7-9 weeks are obtained from Charles River (France). Anaesthesia with ketamine/xylazine is performed 10 minutes before treatment and body temperature is maintained at 35° C.-37° C. using an automated heating pad. A skin area of 1.8×1.5 cm on the back of the mouse is divided in two regions of interest. One region is treated with the vehicle, the other one with RTX 0.03%. […] The skin blood perfusion is evaluated every 2 minutes on the back of the mouse with a Laser Doppler perfusion imaging PIM3 (Perimed, France). […] Images are analysed and the yield of two parameters, the erythematous surface and the blood perfusion intensity ratio, is calculated as a relative area of vasodilation (mm^2). […] Results are expressed as mean±SEM. […]

| SMILES | IC50 (CXCR2) [nM] | IC50 (CXCR1) [nM] | relative area of vasodilation, AUC decreased by (hairless SKH1 mice) [%] |
| --- | --- | --- | --- |
| CC[C@@H](Nc1c(Nc2cccc(C(=O)N(C)C)c2O)c(=O)c1=O)c1ccccc1 [3-[3,4-Dioxo-2-((R)-1-phenyl-propylamino)-cyclobut-1-enylamino]-2-hydroxy-N,N-dimethyl-benzamide] | 7 | 148 |  |
| Oc1cc2c(cc1O)CN(C(=S)NCCc1ccc(Cl)cc1)CCC2 [capsazepine] |  |  | 13 |
